Laboratory results: ChEMBL document CHEMBL3508140 (2016)

Tests used:
[1] = Cumulative urinary excretion of epirubicin and its metabolites following epirubicin at 50 mg.m-2 dose in cancer patients; assay type: ADME, organism-based, Urine; settings: human, in vivo; at 50 mg/m2
[2] = Half-life of terminal elimination phase of epirubicin following intravenous epirubicin at 75-90 mg.m-2 dose in cancer patients; assay type: ADME, organism-based; settings: human, plasma
[3] = (§1) Terminal half-life of epirubicinol following intravenous epirubicin at 1 mg.Kg-1 dose in rabbit; assay type: ADME, organism-based, Oryctolagus cuniculus, New Zealand White, Plasma; settings: in vivo
[4] = Intermediate phase half-life of epirubicin following intravenous epirubicin at 75-90 mg.m-2 dose in cancer patients; assay type: ADME, organism-based, Plasma; settings: human, in vivo
[5] = Plasma clearance of epirubicin following intravenous epirubicin at 75-90 mg.m-2 dose in cancer patients; assay type: ADME, organism-based; settings: human, in vivo
[6] = Volume of distribution as steady state of epirubicin following intravenous epirubicin at 60 mg.m-2 dose in cancer patients; assay type: ADME, organism-based, Plasma; settings: human, in vivo
[7] = Renal clearance of epirubicin following epirubicin at 60 mg.m-2 dose in cancer patients; assay type: ADME, organism-based, Kidney; settings: human, in vivo, iv, read-out: Renal clearance (converted)
[8] = Mean residence time (MRT) of epirubicin following intravenous epirubicin emulsion at 1 mg.Kg-1 dose in rabbit; assay type: ADME, organism-based, Oryctolagus cuniculus; settings: both, New Zealand White, blood, read-out: Mean residence time (converted)
[9] = Mean residence time (MRT) of epirubicin following intrahepatic epirubicin solution at 1 mg.Kg-1 dose in rabbit; assay type: ADME, organism-based, Oryctolagus cuniculus; settings: both, New Zealand White, blood, read-out: Mean residence time (converted)
[10] = Mean estimated half-life of epirubicin following intravenous epirubicin at 1 mg.Kg-1 dose administered approximately 25 minute prior to epirubicin once weekly for four weeks in dog; assay type: ADME, organism-based, Canis lupus familiaris; settings: Beagle, plasma
[11] = Intermediate phase half-life of epirubicin following intravenous epirubicin at 70 mg.m-2 dose in cancer patients; assay type: ADME, organism-based, Plasma; settings: human, in vivo
[12] = Increase in serum phospholipid level following reference intravenous epirubicin at 1 mg.Kg-1 per week in rat; assay type: toxicity, organism-based, SD; settings: in vivo
[13] = (§2) Terminal half-life of epirubicinol following intravenous epirubicin at 3 mg.Kg-1 dose in rabbit; assay type: ADME, organism-based, Oryctolagus cuniculus, New Zealand White, Plasma; settings: in vivo
[14] = Incidence of leukocyturia following reference intravenous epirubicin at 1 mg.Kg-1 per week in rat; assay type: toxicity, organism-based, SD; settings: in vivo
[15] = AUC of epirubicin following intrahepatic epirubicin solution at 1 mg.Kg-1 dose in rabbit; assay type: ADME, organism-based, Oryctolagus cuniculus; settings: both, New Zealand White, blood
[16] = Plasma clearance of epirubicin following intrahepatic epirubicin solution at 1 mg.Kg-1 dose in rabbit; assay type: ADME, organism-based, Oryctolagus cuniculus, Blood; settings: both, New Zealand White
[17] = Initial phase half-life of epirubicin following intravenous epirubicin at 60 mg.m-2 dose in cancer patients; assay type: ADME, organism-based, Plasma; settings: human, in vivo
[18] = Terminal half-life of epirubicin following intrahepatic epirubicin emulsion at 1 mg.Kg-1 dose in rabbit; assay type: ADME, organism-based, Oryctolagus cuniculus; settings: both, New Zealand White, blood
[19] = Initial phase half-life of epirubicin following intravenous epirubicin at 70 mg.m-2 dose in cancer patients; assay type: ADME, organism-based, Plasma; settings: human, in vivo
[20] = Volume of distribution as steady state of epirubicin following intravenous epirubicin at 40-60 mg.m-2 dose in cancer patients; assay type: ADME, organism-based, Plasma; settings: human, in vivo
[21] = Plasma clearance of epirubicin following intravenous epirubicin at 40-135 mg.m-2 dose in cancer patients; assay type: ADME, organism-based; settings: human, in vivo
[22] = Plasma clearance of epirubicin following intravenous epirubicin at 60-90 mg.m-2 dose in cancer patients; assay type: ADME, organism-based; settings: human, in vivo
[23] = Half-life of terminal elimination phase of epirubicin following intravenous epirubicin at 60 mg.m-2 dose in cancer patients; assay type: ADME, organism-based; settings: human, plasma
Albumin = Albumin (Homo sapiens, UniProt P02768); test: Binding of epirubicin to albumin; assay type: cell-free; settings: read-out: Plasma protein binding (converted)
Sequence of Albumin (P02768 whole entry): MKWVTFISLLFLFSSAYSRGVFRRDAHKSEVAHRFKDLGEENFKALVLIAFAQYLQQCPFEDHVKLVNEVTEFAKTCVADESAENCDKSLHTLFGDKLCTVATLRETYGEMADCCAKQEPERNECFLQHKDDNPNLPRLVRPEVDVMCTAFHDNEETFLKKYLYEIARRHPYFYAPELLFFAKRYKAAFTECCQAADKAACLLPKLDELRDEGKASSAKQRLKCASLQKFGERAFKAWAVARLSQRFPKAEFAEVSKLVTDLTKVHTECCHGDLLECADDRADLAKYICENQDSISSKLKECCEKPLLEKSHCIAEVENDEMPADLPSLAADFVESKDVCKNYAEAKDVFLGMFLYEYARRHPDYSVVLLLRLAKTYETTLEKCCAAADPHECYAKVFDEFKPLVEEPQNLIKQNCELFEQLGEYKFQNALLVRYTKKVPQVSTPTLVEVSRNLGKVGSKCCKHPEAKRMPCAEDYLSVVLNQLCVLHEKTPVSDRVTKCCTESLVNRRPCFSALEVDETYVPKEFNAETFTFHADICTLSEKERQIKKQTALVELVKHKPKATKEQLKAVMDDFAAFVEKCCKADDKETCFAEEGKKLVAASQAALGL

[24] = AUC of epirubicin following intravenous epirubicin at 3 mg.Kg-1 dose in rabbit; assay type: ADME, organism-based, Oryctolagus cuniculus; settings: both, New Zealand White, plasma
[25] = Urinary excretion of epirubicin following epirubicin at 50 mg.m-2 dose in cancer patients; assay type: ADME, organism-based; settings: human, urine, at 50 mg/m2, read-out: Compound recovery
[26] = as §1; assay type: ADME, organism-based, Oryctolagus cuniculus, New Zealand White, Plasma; settings: in vivo; remark: listed apart in the source
[27] = Terminal half-life of epirubicin following intravenous epirubicin solution at 1 mg.Kg-1 dose in rabbit; assay type: ADME, organism-based, Oryctolagus cuniculus; settings: both, New Zealand White, blood
[28] = Initial phase half-life of epirubicin following intravenous epirubicin at 75-90 mg.m-2 dose in cancer patients; assay type: ADME, organism-based, Plasma; settings: human, in vivo
[29] = Intermediate phase half-life of epirubicin following intravenous epirubicin at 40-60 mg.m-2 dose in cancer patients; assay type: ADME, organism-based, Plasma; settings: human, in vivo
[30] = Terminal elimination of metabolite of epirubicin following intravenous epirubicin at 50 mg.m-2 dose in cancer patients; assay type: ADME, organism-based, Plasma; settings: human, in vivo
[31] = Urinary elimination of 4'-epiadriamycin following intravenous bolus 4'-epiadriamycin at 10 mg.Kg-1 dose in rat; assay type: ADME, organism-based; settings: SD, urine, read-out: Compound recovery
[32] = Elimination of epirubicin following epirubicin at 60 mg.m-2 dose in cancer patients; assay type: ADME, organism-based, Plasma; settings: human, in vivo, iv
[33] = Volume of distribution of epirubicin following intrahepatic epirubicin solution at 1 mg.Kg-1 dose in rabbit; assay type: ADME, organism-based, Oryctolagus cuniculus; settings: both, New Zealand White, blood
[34] = Increase in serum total cholesterol level following reference intravenous epirubicin at 1 mg.Kg-1 per week in rat; assay type: toxicity, organism-based, SD; settings: in vivo
[35] = Cumulative urinary excretion of epirubicin and its metabolites following epirubicin at 60 mg.m-2 dose in cancer patients; assay type: ADME, organism-based, Urine; settings: human, in vivo; at 60 mg/m2
[36] = Volume of distribution as steady state of epirubicin following intravenous epirubicin at 70 mg.m-2 dose in cancer patients; assay type: ADME, organism-based, Plasma; settings: human, in vivo
[37] = Half-life of epirubicin in plasma following single intravenous epirubicin at 10 mg.Kg-1 dose in female mouse bearing colon tumor; assay type: ADME, organism-based; settings: BALB/c
[38] = Detection of epirubicin in heart following single intravenous epirubicin at 10 mg.Kg-1 dose in female mouse bearing colon tumor; assay type: ADME, organism-based, BALB/c; settings: in vivo
[39] = Half-life of terminal elimination phase of epirubicin following intravenous epirubicin at 90-150 mg.m-2 dose in cancer patients; assay type: ADME, organism-based; settings: human, plasma
[40] = Terminal elimination of metabolite of epirubicin following intravenous epirubicin at 40-135 mg.m-2 dose in cancer patients; assay type: ADME, organism-based, Plasma; settings: human, in vivo
[41] = as §2; assay type: ADME, organism-based, Oryctolagus cuniculus, New Zealand White, Plasma; settings: in vivo; remark: listed apart in the source
[42] = Volume of distribution at steady state following epirubicin at 60 mg.m-2 dose in patients with cancer; assay type: ADME, organism-based; settings: human, plasma, read-out: Vss
[43] = Plasma clearance of epirubicin following intrahepatic epirubicin emulsion at 1 mg.Kg-1 dose in rabbit; assay type: ADME, organism-based, Oryctolagus cuniculus, Blood; settings: both, New Zealand White
[44] = Half-life of terminal elimination phase of epirubicin following intravenous epirubicin at 25-35 mg.m-2 dose in cancer patients; assay type: ADME, organism-based; settings: human, plasma
[45] = Volume of distribution as steady state of epirubicin following intravenous epirubicin at 75 mg.m-2 dose in cancer patients; assay type: ADME, organism-based, Plasma; settings: human, in vivo
[46] = Plasma clearance of 4'-epiadriamycin following intravenous 4'-epiadriamycin at 1.27 mg.Kg-1 dose in dog; assay type: ADME, organism-based, Canis lupus familiaris; settings: Beagle, read-out: Clp
[47] = Plasma clearance of epirubicin following intravenous epirubicin at 50 mg.m-2 dose in cancer patients; assay type: ADME, organism-based; settings: human, in vivo
[48] = Volume of distribution as steady state of epirubicin following intravenous epirubicin at 75-90 mg.m-2 dose in cancer patients; assay type: ADME, organism-based, Plasma; settings: human, in vivo
[49] = Urinary excretion of epirubicin following epirubicin at 75-90 mg.m-2 dose in cancer patients; assay type: ADME, organism-based; settings: human, urine; read-out: Compound recovery
[50] = Mean residence time (MRT) of epirubicin following intravenous epirubicin solution at 1 mg.Kg-1 dose in rabbit; assay type: ADME, organism-based, Oryctolagus cuniculus; settings: both, New Zealand White, blood, read-out: Mean residence time (converted)

COc1cccc2c1C(=O)c1c(O)c3c(c(O)c1C2=O)C[C@@](O)(C(=O)CO)C[C@@H]3O[C@H]1C[C@H](N)[C@@H](O)[C@H](C)O1.Cl [EPIRUBICIN HYDROCHLORIDE]
Radiolabel recovery [1]: 20% | half-life [2]: 38 h | t1/2 [3]: 13.97 h | t1/2 [4]: 2.6 h | CLp [5]: 94.9 L.h-1.m-2 | Vss [6]: 1272 L.m-2 | CL renal [7]: 71.7 mL/min | MRT [8]: 0.835 h | MRT [9]: 1.38 h | half-life [10]: 51.1 h | t1/2 [11]: 1.25 h | PHOSLPD_CHANGE [12]: OUTCOME = Increased | t1/2 [13]: 33.94 h | Incidence [14]: OUTCOME = Observed | AUC [15]: 65.5 ng·h/mL | CL/F [16]: 2700 mL/min | t1/2 [17]: 2.92 min | half-life [18]: 0.868 h | t1/2 [19]: 3.15 min | Vss [20]: 592 L.m-2 | CLp [21]: 50.9 L.h-1.m-2 | CLp [22]: 30.5 L.h-1.m-2 | half-life [23]: 31.4 h | fraction unbound (Albumin): 0.43 | AUC [24]: 620 ng·h/mL | dose excreted at 48 h [25]: 6.2% | dose excreted at 96 h [25]: 9.6% | t1/2 [26]: 0.63 h | half-life [27]: 1.06 h | t1/2 [28]: 4.8 min | t1/2 [29]: 0.49 h | t1/2 [30]: 21.1 h | dose excreted [31]: 2.43% | Elimination [32]: OUTCOME = Observed | Vd [33]: 129 L/kg | CHOL_CHANGE [34]: OUTCOME = Increased | Radiolabel recovery [35]: 11.3% | Vss [36]: 2332 L.m-2 | half-life [37]: 15.6 h | Compound recovery [38]: OUTCOME = Observed | half-life [39]: 42 h | t1/2 [40]: 18.1 h | t1/2 [41]: 1.66 h | Vd [42]: 32 L/kg | CL/F [43]: 3780 mL/min | half-life [44]: 29.3 h | Vss [45]: 2964 L.m-2 | clearance [46]: 589 mL/min | CLp [47]: 37 L.h-1.m-2 | Vss [48]: 1432 L.m-2 | dose excreted at 48 h [49]: 5.9% | MRT [50]: 1.26 h
